Assay results as given in publication PMC11799239, “Mechanistic insights into Rho/MRTF inhibition-induced apoptotic events and prevention of drug resistance in melanoma: implications for the involvement of pirin” (Frontiers in Pharmacology, 2025).

Molecular target: T1, pirin (Homo sapiens, UniProt O00625)
T1 construct: gene PIR
T1 sequence (O00625 1-290): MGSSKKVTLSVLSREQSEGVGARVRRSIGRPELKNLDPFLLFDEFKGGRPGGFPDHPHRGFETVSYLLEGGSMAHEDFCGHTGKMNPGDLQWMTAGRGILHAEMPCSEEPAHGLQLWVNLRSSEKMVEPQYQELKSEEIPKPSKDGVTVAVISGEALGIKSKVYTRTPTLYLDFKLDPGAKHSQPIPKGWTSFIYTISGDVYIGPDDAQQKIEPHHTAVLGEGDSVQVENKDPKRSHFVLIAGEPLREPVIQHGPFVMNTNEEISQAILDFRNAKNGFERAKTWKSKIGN
Assay: fluorescence polarization competition with a pirin FP reporter compound
Assay type: binding
Details: read-out: CCG-257081 (S enantiomer) [drawing 1]

IC50: 8 µM
Structure (SMILES): O=C(Nc1ccc(Cl)cc1)[C@@H]1CN(C(=O)c2cc(F)cc(-c3ccncc3)c2)CC(F)(F)C1 [(S) CCG-257081]
